# ChEMBL document CHEMBL1135755, “SAR by MS: a ligand based technique for drug lead discovery against structured RNA targets” (J Med Chem, 2002)
# Key:
# Nucleic Acid = assay: Inhibitory activity against RNA target using functional assay
# [1] = Dissociation constant was determined; format: physicochemical
compound,measurement,setting,value
NCC[C@@H](NC(=O)c1ccc(-c2cccc(NC(=O)c3ccc4nc(O)c(O)nc4c3)c2)o1)C(=O)N1CCNCC1,IC50,Nucleic Acid,14 µM
same,Kd,[1],6.5 µM
